This passage reports MIC results from patent publication US4992449A, “7-(substituted)cycloalkylamino-1 -(substituted)-6-fluoro-1,4-dihydro-4-oxo-3-quinolinecarboxylic acids” (American Cyanamid Company, priority 1990, dated 1991).

Holding throughout (experiment): In vitro antibacterial MIC, agar plate dilution
Common to all, as to format: cell-based

Experiment [1] deals with Enterobacter cloacae K 84-10. The following applies: K8410, Mueller-Hinton agar, 10^4 CFU, 18 hours, 35° C. An outline of the steps:
(§1)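 Mueller-Hinton agar plates containing serial compound dilutions; inoculum ~10^4 CFU/spot (Steers replicator); incubated 18 h, 35° C; MIC (mcg/ml) = lowest conc. with no visible growth.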

For experiment [2], the system named is Enterobacter cloacae MOR 84-30. The note with it: MOR8430, Mueller-Hinton agar, 10^4 CFU, 18 hours, 35° C. An outline of the steps:
as §1

Experiment [3] deals with Escherichia coli ATCC 25922. The following applies: Escherichia coli, ATCC25922, 18 h, read-out: MIC. A digest of the protocol: as §1
The subject of experiment [4] is Excherichia coli LL 311. The following applies: 18 h, Table II, read-out: MIC. An outline of the steps:
as §1

Experiment [5] deals with Klebsiella neumoniae IO 83-5. The note with it: IO835, Mueller-Hinton agar, 10^4 CFU, 18 hours, 35° C. A digest of the protocol: as §1
For experiment [6], the system named is Proteus rettgeri CMC 84-41. The note with it: Providencia rettgeri, CMC8441, 18 h, Table II, read-out: MIC. A digest of the protocol:
as §1

The test system of experiment [7] is Pseudomonas aeruginosa LL-1244. The following applies: Pseudomonas aeruginosa, LL1244, 18 h, Table II, read-out: MIC. A digest of the protocol:
as §1

Experiment [8] has as its system Pseudomonas aeruginosa VGH 84-16. The note with it: VGH8416, Mueller-Hinton agar, 10^4 CFU, 18 hours, 35° C. An outline of the steps: as §1
In experiment [9] the test system is Serratia marcescens MOR 84-41. The following applies: MOR8441, Mueller-Hinton agar, 10^4 CFU, 18 hours, 35° C. An outline of the steps:
as §1

The subject of experiment [10] is Staphylococcus SSC 82-56. The following applies: SSC8256, 18 h, Table II. An outline of the steps: as §1
The test system of experiment [11] is Staphylococcus aureus CMC 83-131. The note with it: CMC83131, Mueller-Hinton agar, 10^4 CFU, 18 hours, 35° C. An outline of the steps:
as §1

For experiment [12], the system named is Staphylococcus aureus K 82-26. The following applies: K8226, Mueller-Hinton agar, 10^4 CFU, 18 hours, 35° C. An outline of the steps:
as §1

Experiment [13] deals with Staphylococcus aureus NEMC 87-59. The following applies: NEMC8759, 18 h, Table II. A digest of the protocol:
as §1

[14] abbreviates: Table I, Escherichia coli ATCC 25922, Mueller-Hinton agar, 10^4 CFU, 18 hours, 35° C.
Setting [15] is: Table II, Excherichia coli ATCC 25922.

Values after ≈ are worked out from the molar mass of the structure shown. Where two headings read alike, the source gives them in different places. A value given as a limit tells only on which side of the number the result lay.

As usually defined, the MIC is the smallest concentration in the dilution series that meets the test's criterion for growth inhibition. In the case of `N[C@H]1CCC[C@H]1Nc1cc2c(cc1F)c(=O)c(C(=O)O)cn2-c1ccc(F)cc1` (relative stereo) [Example 3], the MIC came to 2 µg/mL (≈ 5.01 µM) in experiment [1]; 8 µg/mL (≈ 20 µM) in [2]; 2 µg/mL (≈ 5.01 µM) in experiment [3] (setting [14]); 1 µg/mL (≈ 2.5 µM) in experiment [3] (setting [15]); 1 µg/mL (≈ 2.5 µM) in [4]; 4 µg/mL (≈ 10 µM) in [5]. Moreover, the MIC in [6] was 4 µg/mL (≈ 10 µM); in [7], 16 µg/mL (≈ 40.1 µM); in experiment [8], above 16 µg/mL; in [9], 4 µg/mL (≈ 10 µM); in experiment [10], 2 µg/mL (≈ 5.01 µM); in experiment [11], above 16 µg/mL. The minimal inhibitory concentration (MIC) in experiment [12] and in experiment [13] was 4 µg/mL (≈ 10 µM) throughout.
As for `CCn1cc(C(=O)O)c(=O)c2cc(F)c(N[C@@H]3CCC[C@@H]3N)cc21` (relative stereo) [Example 4, Cis-7-[(2-Aminocyclopentyl)amino]-1-ethyl-6-fluoro-1,4-dihydro-4-oxo-3-quinolinecarboxylic acid], the MIC in experiment [1] is 1 µg/mL (≈ 3 µM); in [2], 4 µg/mL (≈ 12 µM); in experiment [3] (setting [14]), 0.5 µg/mL (≈ 1.5 µM); in experiment [3] (setting [15]) it was 2 µg/mL (≈ 6 µM); in experiment [4], 2 µg/mL (≈ 6 µM); in [5], 2 µg/mL (≈ 6 µM). Besides, the MIC in experiment [6] was 8 µg/mL (≈ 24 µM); in experiment [7] it was 32 µg/mL (≈ 96 µM); in experiment [8] it was above 16 µg/mL; in experiment [9], 1 µg/mL (≈ 3 µM); in [12] it was 1 µg/mL (≈ 3 µM).
